Measured values: publication PMC12697822, “The CtrCBL1/CtrCIPK6 Complex of Citrus Phosphorylates CtrBBX32 to Regulate CtrSTP1‐Mediated Sugar Accumulation and Cold Tolerance” (Advanced Science, 2025)

Test system: T1, CtrSTP1
T1 construct: full CDS in pDR196, expressed in hexose/sucrose transport-deficient yeast strain CSY4000; plasma membrane hexose transporter
Experiment: […]-glucose uptake in CSY4000 yeast, Eadie-Hofstee
Format: cell-based, Citrus trifoliata
Conditions: pH 5.0; 30 °C; 25 mM sodium phosphate; whole yeast cells; labelled compound; proton-coupled

Structure (SMILES): OC[C@H]1OC(O)[C@H](O)[C@@H](O)[C@@H]1O (stereo partly shown) [glucose]
- Km: 101 ± 23.9 µM
